Assay [1] concerns the target T1, CD4-MHC class II binding (Homo sapiens, UniProt P01730).
T1 construct: expressed in transfected cells; host or cells: COS-7 cells (CD4, plasmid T4-pcDNA3); Raji B cells (endogenous MHC class II)
The assay is described as follows: CD4-MHC class II cell adhesion (rosette formation) assay, CD4-transfected COS-7 cells with Raji B cells. The conditions noted are these: 100 μM compound, FIG. 2. The assay is classed as cell-based. The text has this: The capacity of a compound to inhibit the interaction of CD4 and class II MHC gene products can be determined by a cell rosetting assay. A cell line, such as Cos-7, Cos-1 or the like, can be transiently transfected with a plasmid bearing a human CD4 cDNA operably linked to a promoter. In an alternative embodiment a COS-1 cell line can be stably transformed with a human CD4 expression plasmid. The human CD4expressing cells and a human class II MHC expressing cell are mixed so that cellular rosettes are formed.
No inhibition of resetting was observed when CD8-pcDNA3 transfected cells were rosetted with Raji cells, which also express MHC, class I products.
The sequence of human CD4 CDNA is given in Maddon, P. J. et al., 1985, CELL 42:93-104, which sequence is hereby incorporated by reference in its entirety. Maddon et al. refers to human CD4 as "T4." The plasmid T4-pMV7, containing the human CD4 cDNA is available from the AIDS Research and Reference Reagent Program, Division of AIDS, NIAID, NIH (McKesson BioServices, Rockville, Md.). The 3.0 Kb Eco R1 fragment of T4-pMV7 contains the 1.5 Kb CD4 CDNA.
For transfection of COS-7 cells, a CD4-expression plasmid T4-pcDNA3, was constructed by subcloning the 3.0 Kb Eco R1 fragment of T4-pMV7 into the EcoRI site of the mammalian expression vector pcDNA3 (INVITROGEN). Transfection was accomplished by DOSPER liposomal transfection reagent (BOEHRINGER MANNHEIM), by the following modification of the manufacturer's protocol.
9. Determine the CD4 expression levels as a measure of transfection efficiency by flow cytometry analysis. Usually between 30% and 40% of transfected COS-7 cells expressed human CD4 as defined by immunofluorescence binding assay for the interaction between CD4 and class II MHC proteins in the presence of organic chemicals by rosette formation: Raji B cells 10^7 in 1 ml of RPMI medium with 10% FCS and […] were added to each well 48 h post-transfection and incubated with transfected COS-7 cells in the presence of the test compound (individually 200 μM) at 37° C. for 1 h. Following incubation, wells were washed five or six times by dropping RPMI medium with FCS into wells. Rosette formation between Raji cells and transfected COS-7 cells was scored microscopically at 100-fold magnification. The number of rosette containing more than five Raji cells was counted in 10 random optical fields in each individual well; 300-400 rosettes per well were counted as the positive control for rosette formation without any inhibition in the absence of any chemicals. The inhibition activity for rosette formation for each chemical was determined by the ratio of the number of rosettes obtained in the presence of this chemical to the number of rosettes in the positive control. […]

The test system of assay [2] is SJL mice. The assay is described as follows: EAE inhibition in vivo (PLP-induced acute EAE). The conditions noted are these: single i.v. injection of 50 μg in 0.25% DMSO on day 12 post-challenge, FIG. 3. On the set-up: species or system mouse. As to the method:
The lead organic compounds were tested for in vivo immunosuppressive activity in murine EAE, an animal model for multiple sclerosis. An acute form of EAE was induced in SJL mice by subcutaneous challenge with proteolipid (PLP) epitope, MacRae, B. L., et al., 1995, J. Neuroimmunol. 60:17-28, (100 μg in 0.15 ml PBS emulsified in an equal volume of Complete Freund's Adjuvant) on days 0 and 7. Pertussis (Michigan Biological Products, Lansing Mich.) was administered 30 min after antigen injection on day 7 (0.25 ml containing 5×10^9 inactivated organisms, i.v.). Clinical symptoms of EAE were evaluated based on a 0-5 scale of ascending severity of symptoms, as previously described. Korngold, R., et al., 1986, Immunogenetics 24:309-315. The organic compounds were administered by a single i.v. injection of 50 μg of the compound in 0.25% DMSO (the compounds were not soluble in water alone) on day 12 post-challenge.

Assay [3] concerns C57B1/6 mice challenged with C57B1/6.H-2^bm12 tail skin. Put plainly: Class II MHC disparate skin allograft rejection (CD4+ T cell-mediated B6 anti-bm12 response). The conditions noted are these: TJU103 single i.v. 100 μg in 0.5% DMSO 3 hours before transplantation, vs 0.5% DMSO diluent, FIG. 6. The assay is classed as in vivo, mouse. How it is done: The lead organic compounds were tested for inhibition of CD4^+ T cell-mediated skin allograft rejection using the MHC class II disparate model of C57B1/6 mice challenged with C57B1/6.H-2^bm12 tail skin. Following a modified method of Bailey and Usama (1960, Transplant. Bull. 7:424-425), donor tail skin grafts (0.25 cm×0.5 cm) were transplanted onto the ventral side of the tail of the recipient mouse, covered with a glass tube and held into position with short strips of adhesive tape for 2 days. The tubes were removed and the grafts monitored every other day for up to 80 days. […] Syngeneic grafts were also transplanted as negative controls for rejection. Median survival times (MST) were calculated and statistical comparisons were performed by Wilcoxin signed-rank non-parametric analysis utilizing SYSTAT 5.2 software.
The compounds were injected 3 hours before transplantation at a dosage of 50 μg in 0.2 ml 0.25% DMSO. […] Each group contained 4 animals except the TJU102 group, which contained 5 animals.
The lead organic compound TJU103 (N-(3-indoylmethylene)-isonicotinic hydrazone) was tested for inhibition of CD4^+ T cell-mediated skin allograft rejection using the CD4^+ T cell-mediated B6 anti-bm12 response. […] Median survival times were calculated and statistical comparisons were performed by Wilcoxin signed-rank non-parametric analysis using SYSTAT 5.2 software.

The subject of assay [4] is (B6×CBA)F1 irradiated recipient mice. The assay is described as follows: CD4+ T cell-mediated graft-versus-host disease lethality. The class given is in vivo, mouse. The conditions noted are these: 100 μg i.v. in 0.5% DMSO on days 0, 3 and 6 post-transplant, vs untreated control, p<0.001, FIG. 5. How it is done:
The lead organic compound TJU103 (N-(3-indoylmethylene)-isonicotinic hydrazone) was tested for in vivo inhibition of CD4^+ T cell-mediatedgraft-versus-host disease lethality. (B6×CBA)F1 irradiated recipient mice were transplanted by i.v. injection with haploidentical (B6×DBA/2)F1 T cell-depleted bone marrow (ATBM) and CD4^+ T cells (3×10^6), which induces lethal graft-versus-host disease (GVHD). TJU103 was administered by i.v. injections at a dose of 100 μg in 0.5% DMSO on days 0, 3, and 6 post-transplant. […] Median survival times were calculated and statistical comparisons were performed by Wilcoxin signed-rank non-parametric analysis using SYSTAT 5.2 software.

In assay [5] the test system is B6 recipient mice with bm1 tail skin allografts. Put plainly: Class I MHC disparate skin allograft survival (CD8+ T cell-mediated B6 anti-bm1 response). The assay is classed as in vivo, mouse. As to conditions: TJU103 single i.v. 100 μg in 0.5% DMSO 3 hours before transplantation, vs 0.5% DMSO diluent, FIG. 7. How it is done:
The lead organic compound TJU103 (N-(3-indoylmethylene)-isonicotinic hydrazone) was tested for inhibition of CD8^+ T-cell mediated allograft survival using the CD8^+ T cell-mediated B6 anti-bm1 response. A single i.v. injection of 100 μg of TJU103 in 0.5% DMSO was administered into B6 recipient mice 3 hours before transplantation of MHC class I-disparate bm1 tail skin allografts following a modified method of Bailey and Usama (1960, Transplant Bull. 7:424 425). A group of mice were treated with anti-CD8 monoclonal antibody (2.43) as a […]. Median survival times were calculated and statistical comparisons were performed by Wilcoxin signed-rank non-parametric analysis using SYSTAT 5.2 software.

Entries after “also recorded” stand apart in the source; their conditions may differ.

For orientation: inhibition means the share of the control response that was lost under treatment. A low value points to a response near the control. Regarding `Cn1c(CSCc2nc(-c3ccc(Cl)cc3)cs2)nnc1SCc1ccc(Cl)cc1` [TJU101, 5-(4-chlorobenzylthio)-3-{[(4-chlorophenyl)-2-thiazolyl]methylthiomethyl}-4-methyl-1,2,4-triazole], the inhibition at 100 µM in assay [1] is more than 40%.

`COc1ccc(-c2cn3c(n2)sc2ccccc23)cc1` [TJU102] had an inhibition at 100 µM in assay [1] of more than 40%.

`O=C(NN=Cc1c[nH]c2ccccc12)c1ccncc1` [TJU103, N-(3-indoylmethylene)-isonicotinic hydrazone] showed an inhibition at 100 µM in assay [1] of more than 40%. Besides, in assay [2], the “severity of EAE” value is recorded as “statistically significant effect”. In assay [3], the “survival time of bm12 allografts” value is “prolongs survival time of the allografts; also recorded: effective in prolonging the median survival time of the allografts”. For the same compound, the “median survival time of GVHD recipients” value in assay [4] is recorded as “significantly prolongs the median survival time; also recorded: effective in prolonging median survival time”. For the same compound, the “survival time of bm1 allografts” value in assay [5] was “does not prolong survival time of the allografts”.

Regarding `O=C(Nc1ccc(Cl)cc1Cl)c1nc(Cn2cncn2)n[nH]1` [TJU104, N-(2,4-dichlorophenyl)-3-(1,2,4-triazol-1-ylmethyl)-1,2,4-triazole-5-carboxamide], the inhibition at 100 µM in assay [1] is more than 40%. For the same compound, the “severity of EAE” value in assay [2] is recorded as “statistically significant effect”.

The record behind these values is US6127387A, “Use of CD4-binding small molecules to inhibit immune responses” (Thomas Jefferson University, priority 1997, dated 2000).
